This test concerns the target T1, human Cav3.2 T-type Ca2+ channel (Homo sapiens, UniProt O95180).
T1 construct: expressed in transfected cells; host or cells: KJMGER8 cells (Namalwa cell-derived cell line)
Briefly: Inhibitory effect for intracellular calcium response via Cav3.2 T-type Ca2+ channels (FLIPR Calcium 3 Assay Kit). The format is cell-based. In general terms: Calcium flux is commonly read through the fluorescence of an indicator in the cells.

[1] abbreviates: human Cav3.2-expressing KJMGER8 cells (Namalwa-derived), calcium response induced by 5 mmol/L CaCl2, 3 μmol/L mibefradil as reference, read-out: IC50 for the human Cav3.2 T-type Ca2+ current.

Read-outs that look alike come from different tables or passages of the source.

The IC50 is the point on the concentration scale where inhibition reaches its midpoint.

T1 sequence (O95180 whole entry): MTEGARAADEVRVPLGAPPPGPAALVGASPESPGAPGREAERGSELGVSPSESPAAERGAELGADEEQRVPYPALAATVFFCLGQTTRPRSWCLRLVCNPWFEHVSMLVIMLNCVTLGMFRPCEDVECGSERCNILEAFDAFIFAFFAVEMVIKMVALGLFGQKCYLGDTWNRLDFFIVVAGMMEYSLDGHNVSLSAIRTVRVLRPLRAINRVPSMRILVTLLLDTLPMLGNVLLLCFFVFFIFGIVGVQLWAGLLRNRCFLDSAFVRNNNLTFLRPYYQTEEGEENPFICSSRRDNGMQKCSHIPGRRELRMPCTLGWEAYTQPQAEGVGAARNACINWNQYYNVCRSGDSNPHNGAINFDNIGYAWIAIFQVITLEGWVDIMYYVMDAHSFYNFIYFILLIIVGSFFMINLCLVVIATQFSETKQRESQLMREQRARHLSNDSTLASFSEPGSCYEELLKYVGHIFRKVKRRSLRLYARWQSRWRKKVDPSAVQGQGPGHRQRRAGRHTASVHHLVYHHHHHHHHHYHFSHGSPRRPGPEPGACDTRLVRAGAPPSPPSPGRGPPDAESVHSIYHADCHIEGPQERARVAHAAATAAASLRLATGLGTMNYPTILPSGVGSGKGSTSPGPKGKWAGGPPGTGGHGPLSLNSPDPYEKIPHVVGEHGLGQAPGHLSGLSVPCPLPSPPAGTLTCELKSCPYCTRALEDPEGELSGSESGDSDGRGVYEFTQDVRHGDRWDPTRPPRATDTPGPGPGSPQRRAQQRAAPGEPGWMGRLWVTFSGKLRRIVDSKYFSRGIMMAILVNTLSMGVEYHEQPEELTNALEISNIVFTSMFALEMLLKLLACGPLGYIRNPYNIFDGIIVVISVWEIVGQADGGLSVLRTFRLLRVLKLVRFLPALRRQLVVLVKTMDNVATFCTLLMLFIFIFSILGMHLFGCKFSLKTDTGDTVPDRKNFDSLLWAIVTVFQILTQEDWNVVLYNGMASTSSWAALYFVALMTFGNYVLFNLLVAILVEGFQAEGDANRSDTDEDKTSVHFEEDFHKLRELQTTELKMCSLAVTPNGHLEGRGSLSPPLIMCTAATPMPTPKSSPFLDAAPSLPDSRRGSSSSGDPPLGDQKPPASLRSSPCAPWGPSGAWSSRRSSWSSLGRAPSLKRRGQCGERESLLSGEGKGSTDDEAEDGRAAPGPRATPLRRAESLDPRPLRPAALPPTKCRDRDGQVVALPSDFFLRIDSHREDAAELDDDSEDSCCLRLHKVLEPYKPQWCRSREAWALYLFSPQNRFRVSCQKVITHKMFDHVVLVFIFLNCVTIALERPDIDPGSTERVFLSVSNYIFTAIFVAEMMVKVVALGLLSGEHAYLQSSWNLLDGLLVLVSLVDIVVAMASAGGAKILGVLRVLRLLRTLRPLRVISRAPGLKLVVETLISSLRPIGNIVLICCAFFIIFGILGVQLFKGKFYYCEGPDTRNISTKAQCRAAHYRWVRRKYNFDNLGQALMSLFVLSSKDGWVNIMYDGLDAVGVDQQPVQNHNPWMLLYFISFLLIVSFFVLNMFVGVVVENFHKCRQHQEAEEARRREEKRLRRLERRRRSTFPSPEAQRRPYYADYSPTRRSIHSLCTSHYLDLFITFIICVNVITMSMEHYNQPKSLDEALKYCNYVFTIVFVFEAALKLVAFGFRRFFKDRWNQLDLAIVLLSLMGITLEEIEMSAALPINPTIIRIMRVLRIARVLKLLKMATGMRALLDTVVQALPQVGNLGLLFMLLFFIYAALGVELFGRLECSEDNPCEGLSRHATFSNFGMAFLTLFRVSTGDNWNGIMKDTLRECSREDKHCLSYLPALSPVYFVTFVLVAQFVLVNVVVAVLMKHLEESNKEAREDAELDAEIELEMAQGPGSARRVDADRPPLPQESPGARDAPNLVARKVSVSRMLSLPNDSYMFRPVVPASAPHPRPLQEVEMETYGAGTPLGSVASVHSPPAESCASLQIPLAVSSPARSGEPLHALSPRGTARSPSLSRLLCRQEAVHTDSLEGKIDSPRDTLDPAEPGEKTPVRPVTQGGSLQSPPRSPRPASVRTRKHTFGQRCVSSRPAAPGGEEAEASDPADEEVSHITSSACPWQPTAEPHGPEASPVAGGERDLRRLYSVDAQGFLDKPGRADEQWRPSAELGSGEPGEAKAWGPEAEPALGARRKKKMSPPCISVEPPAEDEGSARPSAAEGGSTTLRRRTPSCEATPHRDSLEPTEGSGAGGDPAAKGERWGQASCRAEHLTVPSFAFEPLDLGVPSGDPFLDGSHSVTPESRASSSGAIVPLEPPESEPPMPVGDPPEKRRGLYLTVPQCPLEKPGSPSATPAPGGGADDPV

As to `N#Cc1cc(C(=O)NC2CC3(COC3)C2)cc2nc(C(F)(F)F)c(CC3CCC(F)(F)CC3)n12` [Compound 146, 5-Cyano-3-[(4,4-difluorocyclohexyl)methyl]-N-(2-oxaspiro[3.3]heptan-6-yl)-2-(trifluoromethyl)imidazo[1,2-a]pyridine-7-carboxamide], under setting [1], the IC50 was not above 100 nM.

As to `CC(C)c1nc2cc(C(=O)NC3CC(F)(F)C3)cc(C#N)n2c1CC1CCC(F)(F)CC1` [Compound 170, 5-Cyano-N-(3,3-difluorocyclobutyl)-3-[(4,4-difluorocyclohexyl)methyl]-2-isopropylimidazo[1,2-a]pyridine-7-carboxamide], the IC50 was not above 100 nM.

As to `CCOC(=O)C(C)NC(=O)c1cc(Cl)n2c(CC3CCC(F)(F)CC3)c(C(F)(F)F)nc2c1` (stereo not shown) [Compound 123, Ethyl 2-{5-chloro-3-[(4,4-difluorocyclohexyl)methyl]-2-(trifluoromethyl)imidazo[1,2-a]pyridine-7-carboxamide}propanoate], the concentration for half-maximal inhibition (IC50) was not above 100 nM.

Regarding `CC(F)(F)c1nc2cc(C(=O)Nc3ccccc3)c(Cl)cn2c1CC1CCC(F)(F)CC1` [Compound 5, 6-Chloro-3-[(4,4-difluorocyclohexyl)methyl]-2-(1,1-difluoroethyl)-N-phenylimidazo[1,2-a]pyridine-7-carboxamide], the IC50 is not above 100 nM.

For `N#Cc1cc(C(=O)NC2(C3CCOCC3)CC2)cc2nc(C(F)(F)F)c(CC3CCC(F)(F)CC3)n12` [Compound 66, 5-Cyano-3-[(4,4-difluorocyclohexyl)methyl]-N-[1-(tetrahydro-2H-pyran-4-yl)cyclopropyl]-2-(trifluoromethyl)imidazo[1,2-a]pyridine-7-carboxamide], the IC50 was not above 100 nM.

In the case of `Cc1cc(CC(=O)NC2CCOCC2)cc2nc(C(F)(F)F)c(CC3CCC(F)(F)CC3)n12` [Compound 78, 2-{3-[(4,4-Difluorocyclohexyl)methyl]-5-methyl-2-(trifluoromethyl)imidazo[1,2-a]pyridin-7-yl}-N-(tetrahydro-2H-pyran-4-yl)acetamide], the IC50 was not above 100 nM.

Take `Cc1cc(C(=O)NC2CC3(COC3)C2)cc2nc(C(F)(F)F)c(CC3CCC(F)(F)CC3)n12` [Compound 88, 3-[(4,4-Difluorocyclohexyl)methyl]-5-methyl-N-(2-oxaspiro[3.3]heptan-6-yl)-2-(trifluoromethyl)imidazo[1,2-a]pyridine-7-carboxamide]: the IC50 was not above 100 nM.

Consider `CC(C)(C)OC(=O)NCCNC(=O)c1cc(Cl)n2c(CC3CCC(F)(F)CC3)c(C(F)(F)F)nc2c1` [Compound 115, tert-Butyl 2-{5-chloro-3-[(4,4-difluorocyclohexyl)methyl]-2-(trifluoromethyl)imidazo[1,2-a]pyridine-7-carboxamide}ethylcarbamate], for which the 50% inhibitory concentration (IC50) is not above 100 nM.

`N#Cc1cc(C(=O)NC2CCCOC2)cc2nc(C(F)(F)F)c(CC3CCC(F)(F)CC3)n12` (stereo not shown) [Compound 64]: the IC50 under setting [1] is not above 100 nM.

`[2H]C([2H])([2H])OC(C)(C)CNC(=O)c1cc(C#N)n2c(Cc3ccc(Cl)cc3)c(C(C)(F)F)nc2c1` [Compound 223, 3-(4-Chlorobenzyl)-5-cyano-2-(1,1-difluoroethyl)-N-(2-methoxy-d3-2-methylpropyl)imidazo[1,2-a]pyridine-7-carboxamide]: the IC50 was not above 100 nM.

As to `Cc1cc(C(=O)NC2CCOCC2)cc2nc(C(F)(F)F)c(Cc3ccccc3)n12` [Compound 206, 3-Benzyl-5-methyl-N-(tetrahydro-2H-pyran-4-yl)-2-(trifluoromethyl)imidazo[1,2-a]pyridine-7-carboxamide], the IC50 was not above 100 nM.

On to `N#Cc1cc(C(=O)NC2CCOC2=O)cc2nc(C(F)(F)F)c(CC3CCC(F)(F)CC3)n12` (stereo not shown) [Compound 140, 5-Cyano-3-[(4,4-difluorocyclohexyl)methyl]-N-(2-oxotetrahydrofuran-3-yl)-2-(trifluoromethyl)imidazo[1,2-a]pyridine-7-carboxamide], for which the 50% inhibitory concentration (IC50) was not above 100 nM.

Take `Cc1cc(C(=O)NC2CCOCC2)cc2nc(C(C)C)c(N(C)C3CCCCC3)n12` [Compound 34, 3-[Cyclohexyl(methyl)amino]-2-isopropyl-5-methyl-N-(tetrahydro-2H-pyran-4-yl)imidazo[1,2-a]pyridine-7-carboxamide]: the concentration for half-maximal inhibition (IC50) under setting [1] is not above 100 nM.

For `O=C(NCCN1CCCCC1)c1cc(Cl)n2c(CC3CCC(F)(F)CC3)c(C(F)(F)F)nc2c1` [Compound 99, 5-Chloro-3-[(4,4-difluorocyclohexyl)methyl]-N-[2-(piperidin-1-yl)ethyl]-2-(trifluoromethyl)imidazo[1,2-a]pyridine-7-carboxamide], the concentration for half-maximal inhibition (IC50) is not above 100 nM.

For `Cc1cc(C(O)C(O)c2ccccc2)cc2nc(C(F)(F)F)c(CC3CCC(F)(F)CC3)n12` (stereo not shown) [Compound 94, 1-{3-[(4,4-Difluorocyclohexyl)methyl]-5-methyl-2-(trifluoromethyl)imidazo[1,2-a]pyridin-7-yl}-2-phenylethane-1,2-diol], the IC50 is not above 100 nM.

Regarding `N#Cc1cc(C(=O)N2C[C@H]3COC[C@@H](C2)C3=O)cc2nc(C(F)(F)F)c(CC3CCC(F)(F)CC3)n12` [Compound 210, 3-[(4,4-Difluorocyclohexyl)methyl]-7-[(1R,5S)-9-oxo-3-oxa-7-azabicyclo[3.3.1]nonane-7-carbonyl)-2-(trifluoromethyl)imidazo[1,2-a]pyridine-5-carbonitrile], under setting [1], the IC50 is not above 100 nM.

Turning to `CC(C)(C)NC(=O)c1cc2nc(C(F)(F)F)c(CC3CCC(F)(F)CC3)n2c(Cl)c1Cl` [Compound 227, N-tert-Butyl-5,6-dichloro-3-[(4,4-difluorocyclohexyl)methyl]-2-(trifluoromethyl)imidazo[1,2-a]pyridine-7-carboxamide], the half-maximal inhibitory concentration (IC50) was not above 100 nM.

Regarding `CC1(C)CC(NC(=O)c2cc3nc(C(F)(F)F)c(CC4CCC(F)(F)CC4)n3c(Cl)c2Cl)CCO1` (stereo not shown) [Compound 205, 5,6-Dichloro-3-[(4,4-difluorocyclohexyl)methyl]-N-(2,2-dimethyltetrahydro-2H-pyran-4-yl)-2-(trifluoromethyl)imidazo[1,2-a]pyridine-7-carboxamide], the half-maximal inhibitory concentration (IC50) under setting [1] is not above 100 nM.

Regarding `CC(C)(O)CNC(=O)c1cc2nc(C(C)(F)F)c(CC3CCC(F)(F)CC3)n2cc1Cl` [Compound 26, 6-Chloro-3-[(4,4-difluorocyclohexyl)methyl]-2-(1,1-difluoroethyl)-N-(2-hydroxy-2-methylpropyl)imidazo[1,2-a]pyridine-7-carboxamide], the IC50 was not above 100 nM.

Turning to `Cc1c(C(=O)NC2CCOCC2)cc(C)n2c(CC3CCC(F)(F)CC3)c(C(F)(F)F)nc12` [Compound 166, 3-[(4,4-Difluorocyclohexyl)methyl]-5,8-dimethyl-N-(tetrahydro-2H-pyran-4-yl)-2-(trifluoromethyl)imidazo[1,2-a]pyridine-7-carboxamide], the IC50 was not above 100 nM.

Turning to `Cc1cc(C(=O)NC2CC3(COC3)C2)cc2nc(C(C)C)c(CC3CCC(F)(F)CC3)n12` [Compound 145, 3-[(4,4-Difluorocyclohexyl)methyl]-2-isopropyl-5-methyl-N-(2-oxaspiro[3.3]heptan-6-yl)imidazo[1,2-a]pyridine-7-carboxamide], the IC50 was not above 100 nM.

For `CC1(C)CC(NC(=O)c2cc3nc(C(C)(F)F)c(CC4CCC(F)(F)CC4)n3cc2Cl)CCO1` (stereo not shown) [Compound 23, 6-Chloro-3-[(4,4-difluorocyclohexyl)methyl]-2-(1,1-difluoroethyl)-N-(2,2-dimethyltetrahydro-2H-pyran-4-yl)imidazo[1,2-a]pyridine-7-carboxamide], the IC50 was not above 100 nM.

(Values after patent US9540366B2, “Ring-fused heterocyclic compound” (Kyowa Hakko Kirin Co., Ltd., priority 2012, dated 2017).)
